How the values were obtained:
Assay in all cases: Kinase profiling in a biochemical assay panel (mobility shift assays and ELISA), %-inhibition at 1 μM; selectivity entropy
[1] = biological target: panel of more than 300 wild-type and mutant kinases (313 kinase panel) (Homo sapiens, UniProt P05129); settings: kinase PKCγ; 1 μM
[2] = biological target: panel of more than 300 wild-type and mutant kinases (313 kinase panel) (Homo sapiens, UniProt P12931); settings: kinase SRC; 1 μM
[3] = biological target: panel of more than 300 wild-type and mutant kinases (313 kinase panel) (Homo sapiens, UniProt P31749)
[4] = biological target: panel of more than 300 wild-type and mutant kinases (313 kinase panel) (Homo sapiens, UniProt P41279); settings: kinase COT; compound at 1 μM
[5] = biological target: panel of more than 300 wild-type and mutant kinases (313 kinase panel) (Homo sapiens, UniProt P51812)
[6] = biological target: panel of more than 300 wild-type and mutant kinases (313 kinase panel) (Homo sapiens, UniProt P57059); settings: kinase SIK; 1 μM
[7] = biological target: panel of more than 300 wild-type and mutant kinases (313 kinase panel) (Homo sapiens, UniProt Q13131); settings: kinase AMPKα1/β1/γ1; 1 μM compound
[8] = biological target: panel of more than 300 wild-type and mutant kinases (313 kinase panel) (Homo sapiens, UniProt Q13164); settings: kinase Erk5; compound at 1 μM
[9] = biological target: panel of more than 300 wild-type and mutant kinases (313 kinase panel) (Homo sapiens, UniProt Q13557); settings: kinase CaMK2δ; 1 μM compound
[10] = biological target: panel of more than 300 wild-type and mutant kinases (313 kinase panel) (Homo sapiens, UniProt Q14012)
[11] = biological target: panel of more than 300 wild-type and mutant kinases (313 kinase panel) (Homo sapiens, UniProt Q16512); settings: kinase PKN1; 1 μM
[12] = biological target: panel of more than 300 wild-type and mutant kinases (313 kinase panel) (Homo sapiens, UniProt Q9H0K1); settings: kinase QIK; 1 μM
[13] = biological target: T1, panel of more than 300 wild-type and mutant kinases (313 kinase panel) (Homo sapiens, UniProt Q9UQB9)
T1 sequence (Q9UQB9 1-309): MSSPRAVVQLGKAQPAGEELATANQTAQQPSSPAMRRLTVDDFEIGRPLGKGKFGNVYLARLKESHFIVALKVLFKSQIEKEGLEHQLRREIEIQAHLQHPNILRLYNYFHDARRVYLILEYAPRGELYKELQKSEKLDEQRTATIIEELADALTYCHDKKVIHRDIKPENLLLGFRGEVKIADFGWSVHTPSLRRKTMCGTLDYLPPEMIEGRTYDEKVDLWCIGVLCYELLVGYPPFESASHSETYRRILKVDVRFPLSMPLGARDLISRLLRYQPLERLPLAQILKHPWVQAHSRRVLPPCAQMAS

[14] = biological target: panel of more than 300 wild-type and mutant kinases (313 kinase panel) (Homo sapiens, UniProt Q9Y6M4); settings: kinase CK1γ3; 1 μM compound
[15] = biological target: panel of more than 300 wild-type and mutant kinases (313 kinase panel) (Homo sapiens, UniProt P11362); settings: kinase FGFR1; compound at 1 μM
Sequence of panel of more than 300 wild-type and mutant kinases (313 kinase panel) (Homo sapiens, UniProt P11362) (P11362 22-822, change not shown): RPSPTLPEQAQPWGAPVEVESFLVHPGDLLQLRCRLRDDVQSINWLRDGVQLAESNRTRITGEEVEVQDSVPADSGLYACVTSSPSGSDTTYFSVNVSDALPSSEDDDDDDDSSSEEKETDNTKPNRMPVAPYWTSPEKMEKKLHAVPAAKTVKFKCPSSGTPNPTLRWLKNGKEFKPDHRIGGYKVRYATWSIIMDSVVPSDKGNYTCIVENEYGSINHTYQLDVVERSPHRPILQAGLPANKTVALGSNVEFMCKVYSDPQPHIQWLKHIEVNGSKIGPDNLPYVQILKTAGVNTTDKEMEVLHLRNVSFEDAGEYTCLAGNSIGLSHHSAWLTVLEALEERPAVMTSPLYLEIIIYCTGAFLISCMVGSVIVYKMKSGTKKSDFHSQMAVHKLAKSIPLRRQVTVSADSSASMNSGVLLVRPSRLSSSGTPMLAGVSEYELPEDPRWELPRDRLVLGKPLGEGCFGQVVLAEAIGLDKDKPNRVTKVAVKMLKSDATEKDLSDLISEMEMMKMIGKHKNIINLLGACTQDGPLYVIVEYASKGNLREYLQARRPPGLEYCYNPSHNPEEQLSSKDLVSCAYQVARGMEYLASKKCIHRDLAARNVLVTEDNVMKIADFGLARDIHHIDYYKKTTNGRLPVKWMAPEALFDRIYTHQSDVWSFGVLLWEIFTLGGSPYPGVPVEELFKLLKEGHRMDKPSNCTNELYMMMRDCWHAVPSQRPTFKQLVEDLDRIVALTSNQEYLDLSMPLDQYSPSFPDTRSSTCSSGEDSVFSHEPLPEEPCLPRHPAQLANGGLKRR

Sequence of panel of more than 300 wild-type and mutant kinases (313 kinase panel) (Homo sapiens, UniProt Q9H0K1) (Q9H0K1 whole entry, change not shown): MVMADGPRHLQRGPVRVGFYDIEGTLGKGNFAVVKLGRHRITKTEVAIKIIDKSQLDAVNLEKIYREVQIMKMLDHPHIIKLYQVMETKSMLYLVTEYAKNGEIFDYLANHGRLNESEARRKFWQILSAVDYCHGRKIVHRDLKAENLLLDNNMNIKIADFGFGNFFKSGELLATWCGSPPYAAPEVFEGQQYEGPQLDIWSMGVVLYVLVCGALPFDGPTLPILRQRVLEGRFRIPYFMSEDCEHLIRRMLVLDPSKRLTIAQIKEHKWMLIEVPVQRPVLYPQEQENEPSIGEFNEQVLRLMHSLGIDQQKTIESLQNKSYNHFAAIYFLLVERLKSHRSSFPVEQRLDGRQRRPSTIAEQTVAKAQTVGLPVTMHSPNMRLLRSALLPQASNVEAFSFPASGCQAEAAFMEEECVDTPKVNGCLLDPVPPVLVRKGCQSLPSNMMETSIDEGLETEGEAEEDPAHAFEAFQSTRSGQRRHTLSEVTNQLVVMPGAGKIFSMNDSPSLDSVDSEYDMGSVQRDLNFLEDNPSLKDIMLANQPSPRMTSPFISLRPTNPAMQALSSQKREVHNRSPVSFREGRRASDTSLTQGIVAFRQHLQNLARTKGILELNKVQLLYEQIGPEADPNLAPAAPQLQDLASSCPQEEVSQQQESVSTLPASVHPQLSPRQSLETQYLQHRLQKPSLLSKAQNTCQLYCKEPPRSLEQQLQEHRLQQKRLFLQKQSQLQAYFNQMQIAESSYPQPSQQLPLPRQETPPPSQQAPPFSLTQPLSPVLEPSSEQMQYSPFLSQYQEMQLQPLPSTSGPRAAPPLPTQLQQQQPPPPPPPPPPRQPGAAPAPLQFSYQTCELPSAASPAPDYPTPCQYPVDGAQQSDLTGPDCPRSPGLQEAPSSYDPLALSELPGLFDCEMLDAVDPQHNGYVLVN
Sequence of panel of more than 300 wild-type and mutant kinases (313 kinase panel) (Homo sapiens, UniProt P31749) (P31749 whole entry, change not shown): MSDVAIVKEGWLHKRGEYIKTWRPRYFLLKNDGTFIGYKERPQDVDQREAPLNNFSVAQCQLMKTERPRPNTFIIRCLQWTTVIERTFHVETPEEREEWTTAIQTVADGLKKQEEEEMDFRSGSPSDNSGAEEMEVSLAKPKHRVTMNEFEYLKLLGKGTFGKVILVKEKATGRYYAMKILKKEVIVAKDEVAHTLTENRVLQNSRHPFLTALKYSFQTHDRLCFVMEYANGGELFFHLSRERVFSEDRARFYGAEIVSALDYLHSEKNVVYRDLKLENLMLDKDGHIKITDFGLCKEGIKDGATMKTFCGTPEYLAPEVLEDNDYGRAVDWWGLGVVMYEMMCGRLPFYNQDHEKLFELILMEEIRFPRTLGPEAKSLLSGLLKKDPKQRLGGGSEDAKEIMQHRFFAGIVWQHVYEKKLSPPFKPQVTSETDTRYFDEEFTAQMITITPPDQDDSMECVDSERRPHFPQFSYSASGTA
Sequence of panel of more than 300 wild-type and mutant kinases (313 kinase panel) (Homo sapiens, UniProt Q9Y6M4) (Q9Y6M4 whole entry, change not shown): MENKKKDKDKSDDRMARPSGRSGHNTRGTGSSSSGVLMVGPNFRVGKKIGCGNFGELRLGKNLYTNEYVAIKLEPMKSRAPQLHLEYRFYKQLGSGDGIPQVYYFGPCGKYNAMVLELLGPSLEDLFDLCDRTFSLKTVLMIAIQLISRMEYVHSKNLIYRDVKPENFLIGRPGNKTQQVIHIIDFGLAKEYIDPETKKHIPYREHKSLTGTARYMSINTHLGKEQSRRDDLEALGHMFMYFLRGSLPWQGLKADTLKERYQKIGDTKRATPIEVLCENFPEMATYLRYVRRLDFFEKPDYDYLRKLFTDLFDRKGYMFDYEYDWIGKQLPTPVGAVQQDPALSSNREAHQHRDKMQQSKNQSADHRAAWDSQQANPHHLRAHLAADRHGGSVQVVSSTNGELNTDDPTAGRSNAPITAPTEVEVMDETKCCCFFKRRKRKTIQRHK
Sequence of panel of more than 300 wild-type and mutant kinases (313 kinase panel) (Homo sapiens, UniProt Q13557) (Q13557 whole entry, stated change not applied): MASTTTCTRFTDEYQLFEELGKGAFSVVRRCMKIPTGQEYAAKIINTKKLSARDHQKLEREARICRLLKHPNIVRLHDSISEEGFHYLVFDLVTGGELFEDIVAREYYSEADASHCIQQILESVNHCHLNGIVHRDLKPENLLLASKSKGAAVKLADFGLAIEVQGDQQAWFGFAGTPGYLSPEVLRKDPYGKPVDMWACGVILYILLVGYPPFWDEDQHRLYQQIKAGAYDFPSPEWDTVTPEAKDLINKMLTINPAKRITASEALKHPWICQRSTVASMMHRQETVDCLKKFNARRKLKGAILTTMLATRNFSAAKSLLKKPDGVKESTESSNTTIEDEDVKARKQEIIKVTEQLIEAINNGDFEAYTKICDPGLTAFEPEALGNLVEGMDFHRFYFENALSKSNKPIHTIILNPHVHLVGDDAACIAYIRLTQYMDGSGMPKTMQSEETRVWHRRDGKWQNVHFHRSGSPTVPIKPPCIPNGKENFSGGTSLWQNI
Sequence of panel of more than 300 wild-type and mutant kinases (313 kinase panel) (Homo sapiens, UniProt P41279) (P41279 whole entry, change not shown): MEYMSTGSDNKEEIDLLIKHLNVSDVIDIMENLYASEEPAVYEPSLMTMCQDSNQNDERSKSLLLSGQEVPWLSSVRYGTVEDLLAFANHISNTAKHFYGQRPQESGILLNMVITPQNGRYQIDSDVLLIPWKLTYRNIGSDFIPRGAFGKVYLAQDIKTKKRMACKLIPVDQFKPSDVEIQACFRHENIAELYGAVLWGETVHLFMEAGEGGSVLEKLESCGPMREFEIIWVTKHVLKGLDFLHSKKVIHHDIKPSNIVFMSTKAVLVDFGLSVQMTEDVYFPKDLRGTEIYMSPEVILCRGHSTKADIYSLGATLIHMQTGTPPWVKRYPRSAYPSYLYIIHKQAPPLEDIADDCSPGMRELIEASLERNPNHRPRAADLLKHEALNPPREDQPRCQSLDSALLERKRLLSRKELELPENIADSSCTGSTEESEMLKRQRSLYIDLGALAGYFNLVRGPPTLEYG
Sequence of panel of more than 300 wild-type and mutant kinases (313 kinase panel) (Homo sapiens, UniProt Q13131) (Q13131 whole entry, change not shown): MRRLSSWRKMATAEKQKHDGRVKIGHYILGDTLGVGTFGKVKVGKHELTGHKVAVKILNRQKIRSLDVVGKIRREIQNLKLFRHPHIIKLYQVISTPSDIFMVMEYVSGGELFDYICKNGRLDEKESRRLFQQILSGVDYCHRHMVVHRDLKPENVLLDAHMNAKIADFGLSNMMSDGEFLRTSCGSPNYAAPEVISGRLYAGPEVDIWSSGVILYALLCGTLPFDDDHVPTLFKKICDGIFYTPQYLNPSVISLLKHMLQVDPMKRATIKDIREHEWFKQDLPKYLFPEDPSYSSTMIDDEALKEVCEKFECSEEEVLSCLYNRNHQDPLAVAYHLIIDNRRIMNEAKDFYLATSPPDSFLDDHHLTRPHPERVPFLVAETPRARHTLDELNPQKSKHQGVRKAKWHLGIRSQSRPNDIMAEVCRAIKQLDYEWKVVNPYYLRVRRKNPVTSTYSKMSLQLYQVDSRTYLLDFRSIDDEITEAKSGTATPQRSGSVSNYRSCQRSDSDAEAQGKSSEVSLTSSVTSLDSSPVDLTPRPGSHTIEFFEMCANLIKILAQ

Row | Structure (SMILES) | %-inhibition of PKCγ [1] [%] | %-inhibition of SRC [2] [%] | %-inhibition, AKT1 ([3]; kinase AKT1, 1 μM compound) [%] | %-inhibition of COT [4] [%] | %-inhibition of RSK2 ([5]; kinase RSK2, 1 μM) [%] | %-inhibition of SIK [6] [%] | %-inhibition, AMPKα1/β1/γ1 [7] [%] | %-inhibition of Erk5 [8] [%] | %-inhibition, CaMK2δ [9] [%] | %-inhibition, CaMK1α ([10]; kinase CaMK1α, 1 μM compound) [%] | %-inhibition of PKN1 [11] [%] | %-inhibition of QIK [12] [%] | %-inhibition, AurC ([13]; kinase AurC, 1 μM compound) [%] | %-inhibition, CK1γ3 [14] [%] | %-inhibition, AKT1 ([3]; 1 µM) [%] | %-inhibition of FGFR1 [15] [%] | %-inhibition of RSK2 ([5]; 1 µM) [%] | %-inhibition, CaMK1α ([10]; 1 µM) [%] | %-inhibition, AurC ([13]; 1 µM) [%]
1 | CNC(=O)c1cc(Oc2ccc(NC(=O)Nc3ccc(Cl)c(C(F)(F)F)c3)c(F)c2)ccn1 [regorafenib] | -8 | 44 | -5.68 | -4 | 6.66 | 0.674 | -0.723 | 16 | 1.53 | -6 | 0.804 | -5.63 | 22 | -2.14 | – | – | – | – | –
2 | Cc1nc(Nc2ncc(C(=O)Nc3c(C)cccc3Cl)s2)cc(N2CCN(CCO)CC2)n1 [dasatinib] | – | – | – | – | – | – | – | 5 | -7.61 | 1.38 | – | – | – | – | – | – | – | – | –
3 | COc1cc2c(Nc3ccc(Br)cc3F)ncnc2cc1OCC1CCN(C)CC1 [vandetanib] | -5 | – | – | -2.53 | 5.7 | 70 | 9 | 9 | 10 | -3 | 0.946 | 95 | – | 2.66 | -4.52 | – | – | – | –
4 | CC(C)(C)c1nc(-c2cccc(NS(=O)(=O)c3c(F)cccc3F)c2F)c(-c2ccnc(N)n2)s1 [dabrafenib] | -0.381 | 68 | – | 9 | – | 100 | – | 0.144 | -0.23 | – | -2.84 | 80 | 23 | – | – | 10 | – | – | –
5 | Cc1ccc(Nc2nccc(N(C)c3ccc4c(C)n(C)nc4c3)n2)cc1S(N)(=O)=O [pazopanib] | 9 | 67 | -2 | -0.233 | 9 | 19 | -0.748 | 16 | 1.54 | 5.59 | 17 | 17 | 58 | -2 | – | – | – | – | –
6 | N#CC[C@H](C1CCCC1)n1cc(-c2ncnc3[nH]ccc23)cn1 [ruxolitinib] | 6 | 16 | -5 | -3.66 | 9 | 22 | 2.17 | 6 | 81 | – | 50 | 35 | – | 4.6 | – | 24 | – | – | –
7 | C[C@@H](Oc1cc(-c2cnn(C3CCNCC3)c2)cnc1N)c1c(Cl)ccc(F)c1Cl [crizotinib] | -0.662 | – | -7 | 11 | 0.217 | 26 | 16 | 45 | 4 | 0.734 | 23 | 38 | 87 | 4 | – | 17 | – | – | –
8 | CN(C)C/C=C/C(=O)Nc1cc2c(Nc3ccc(F)c(Cl)c3)ncnc2cc1O[C@H]1CCOC1 [afatinib] | 3 | – | – | -7.4 | – | – | – | – | – | – | – | – | – | – | – | – | – | – | –
9 | O=S(=O)(c1cccc2cnccc12)N1CCCNCC1 [fasudil] | 10 | -5 | 4.44 | 12 | – | -0.948 | -14 | -3.32 | 3.46 | -5.45 | 55 | 3.26 | -0.164 | -4 | – | -0.145 | – | – | –
10 | COc1cc(Nc2c(C#N)cnc3cc(OCCCN4CCN(C)CC4)c(OC)cc23)c(Cl)cc1Cl [bosutinib] | 12 | 96 | – | 7 | – | 100 | 9 | 3.35 | – | – | 32 | 100 | – | 3.3 | -5.47 | – | 41 | 9 | -4
11 | CCN(CC)CCNC(=O)c1c(C)[nH]c(/C=C2\C(=O)Nc3ccc(F)cc32)c1C [sunitinib] | 17 | – | – | – | – | – | – | 22 | – | – | – | – | 82 | – | – | – | – | – | –
12 | CC(=O)Nc1cccc(-n2c(=O)n(C3CC3)c(=O)c3c(Nc4ccc(I)cc4F)n(C)c(=O)c(C)c32)c1 [trametinib] | 0.381 | -5.4 | -3 | 13 | -1.76 | -3 | -12 | -2.55 | -2.19 | -2 | 3.71 | -4.66 | 1 | – | – | -1.45 | – | – | –
13 | Cc1ccc(C(=O)Nc2ccc(CN3CCN(C)CC3)c(C(F)(F)F)c2)cc1C#Cc1cnc2cccnn12 [ponatinib] | -3 | 102 | – | -2.42 | 30 | 96 | 46 | 3.45 | – | – | 1.61 | 51 | 19 | 4.6 | – | 101 | – | – | –
